The molecules below were run against Human CARM1 (PRMT4) (Homo sapiens (Human), UniProt Q86X55) (assay: CARM1 enzyme assay on peptide substrate (3H-SAM Flashplate)). Conditions: Biochemical potencies, classification codes; read-out: Biochem IC50.
Human CARM1 (PRMT4), sequence (Q86X55 other isoform, or with tags, fused parts or gaps isoform Q86X55-1): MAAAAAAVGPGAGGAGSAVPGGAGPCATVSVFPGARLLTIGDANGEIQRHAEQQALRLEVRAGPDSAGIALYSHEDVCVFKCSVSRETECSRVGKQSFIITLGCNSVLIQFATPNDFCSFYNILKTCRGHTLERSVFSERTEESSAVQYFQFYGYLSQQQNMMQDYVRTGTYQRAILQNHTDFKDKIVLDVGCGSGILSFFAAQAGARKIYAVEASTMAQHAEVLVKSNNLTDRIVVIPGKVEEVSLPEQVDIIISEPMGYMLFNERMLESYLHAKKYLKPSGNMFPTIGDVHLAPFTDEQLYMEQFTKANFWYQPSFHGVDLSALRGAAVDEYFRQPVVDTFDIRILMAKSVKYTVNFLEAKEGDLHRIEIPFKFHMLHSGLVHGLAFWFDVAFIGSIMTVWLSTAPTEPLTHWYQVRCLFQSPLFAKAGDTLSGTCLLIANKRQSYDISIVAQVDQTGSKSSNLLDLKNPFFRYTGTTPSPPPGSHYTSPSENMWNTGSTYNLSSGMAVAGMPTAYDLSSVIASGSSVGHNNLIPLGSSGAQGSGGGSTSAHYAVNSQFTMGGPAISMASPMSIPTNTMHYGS
Description: S-adenosylmethionine (SAM), S-adenosylhomocysteine (SAH), bicine, Tween20, dimethylsulfoxide (DMSO), bovine skin gelatin (BSG), sodium butyrate and Tris(2-carboxyethyl)phosphine hydrochloride solution (TCEP) were purchased from Sigma-Aldrich at the highest level of purity possible. ^3H-SAM was purchase from American Radiolabeled Chemicals with a specific activity of 80 Ci/mmol. 384-well streptavidin Flashplates were purchased from PerkinElmer.
Peptide representative of human histone H3 residues 16-30 was synthesized with an N-terminal linker-affinity tag motif and a C-terminal amide cap by 21st Century Biochemicals. […] The sequence was Biot-Ahx-[…]-amide and contained a monomethylated arginine at position 26 (SEQ ID NO.:1).
The gene sequence encoding isoform1 containing a deletion of amino acids 539-561 was amplified subsequently and subcloned into pFastBacMam (Viva Biotech).
Recombinant baculovirus were generated according to Bac-to-Bac kit instructions (Life Technologies). Protein over-expression was accomplished by infecting exponentially growing HEK 293F cell culture at 1.3×10^6cell/ml with virus (MOI=10) in the presence of 8 mM sodium butyrate. Infections were carried out at 37° C. for 48 hours, harvested by centrifugation, and stored at −80° C. for purification.
Expressed full-length human Flag- and His-tagged CARM1 protein was purified from cell paste by anti-flag M2 affinity chromatography with resin equilibrated with buffer containing 20 mM Tris, 150 mM NaCl, 5% glycerol, pH 7.8. Column was washed with 500 mM NaCl in buffer A and Flag-CARM1-His was eluted with 200 ug/ml FLAG peptide in buffer A. Pooled fractions were dialyzed in 20 mM Tris, 150 mM NaCl, 5% glycerol and 1 mM DTT, pH 7.8.
The assays were all performed in a buffer consisting of 20 mM Bicine (pH=7.6), 1 mM TCEP, 0.005% BSG, and 0.002% Tween 20, prepared on the day of use. Compounds in 100% DMSO (1 ul) were spotted into a polypropylene 384-well V-bottom plates (Greiner) using a Platemate Plus outfitted with a 384-channel head (Thermo Scientific). DMSO (1 ul) was added to Columns 11, 12, 23, 24, rows A-H for the maximum signal control and 1 ul of SAH, a known product and inhibitor of CARM1, was added to columns 11, 12, 23, 24, rows I-P for the minimum signal control. A cocktail (40 ul) containing the CARM1 enzyme was added by Multidrop Combi (Thermo-Fisher). The compounds were allowed to incubate with CARM1 for 30 min at room temperature, then a cocktail (10 ul) containing ^3H-SAM and peptide was added to initiate the reaction (final volume=51 ul). The final concentrations of the components were as follows: CARM1 was 0.25 nM, ^3H-SAM was 30 nM, peptide was 250 nM, SAH in the minimum signal control wells was 1 mM, and the DMSO concentration was 2%. The assays were stopped by the addition of non-radiolabeled SAM (10 ul) to a final concentration of 300 uM, which dilutes the ^3H-SAM to a level where its incorporation into the peptide substrate is no longer detectable. 50 ul of the reaction in the 384-well polypropylene plate was then transferred to a 384-well Flashplate and the biotinylated peptides were allowed to bind to the streptavidin surface for at least 1 hour before being washed once with 0.1% Tween20 in a Biotek ELx405 plate washer. The plates were then read in a PerkinElmer TopCount plate reader to measure the quantity of ^3H-labeled peptide bound to the Flashplate surface, measured as disintegrations per minute (dpm) or alternatively, referred to as counts per minute (cpm).
where dpm=disintegrations per minute, cmpd=signal in assay well, and min and max are the respective minimum and maximum signal controls.
where top and bottom are the normally allowed to float, but may be fixed at 100 or 0 respectively in a 3-parameter fit. The Hill Coefficient normally allowed to float but may also be fixed at 1 in a 3-parameter fit. Y is the % inhibition and X is the compound concentration.
With `CCOC(=O)N1CCOC[C@@H]1CNc1nc(-c2cc(OC[C@@H](O)CNC)ccc2Cl)nc(-c2c(C)noc2C)c1C` [Example 42-3] the IC50 was < 100 nM.
With `CNCC(O)COc1cccc(-c2nc(N[C@H]3C[C@H](O)C3)cc(-c3c(C)noc3C)n2)c1` (some centres unmarked) [Example 43-1a] the IC50 was < 100 nM.
With `CNC[C@H](O)COc1ccc(Cl)c(-c2nc(N[C@H]3CCN(C4CC4)C[C@H]3F)c(C)c(-c3c(C)noc3C)n2)c1` [Example 43-3] the IC50 was < 100 nM.
For `CNCC(O)COc1cccc(-c2nc(N[C@@H]3CC[C@@H](O)C3)cc(-c3c(C)noc3C)n2)c1` (some centres unmarked) [Example 44-1a], the IC50 was < 100 nM.
For `CNC[C@@H](O)COc1ccc(Cl)c(-c2nc(N[C@H]3CCN(C4CC4)C[C@H]3F)c(C)c(-c3c(C)noc3C)n2)c1` [Example 44-3], the IC50 was < 100 nM.
`CNCC(O)COc1cc(Cl)cc(-c2nc(N[C@H]3CCOC3)c(C)c(-c3ccncc3)n2)c1` (some centres unmarked) [Example 45-1] was tested, and the IC50 was < 100 nM.
In the case of `CNCC(O)COc1cccc(-c2nc(NC3CC(C(=O)OC)C3)cc(-c3c(C)noc3C)n2)c1` (centres unmarked) [Example 45-1a], the IC50 is reported as < 100 nM.
In the case of `CNCC(O)COc1ccc(Cl)c(-c2nc(NC3CC4(C3)CN(C(=O)OC)C4)c(C)c(-c3c(C)noc3C)n2)c1` (centres unmarked) [Example 45-3], the IC50 is reported as < 100 nM.
With `CNCC(O)COc1cccc(-c2nc(NC3CCOCC3)cc(-c3cc4ccccc4o3)n2)c1` (centres unmarked) [Example 46-1] the IC50 was < 100 nM.
With `CNCC(O)COc1ccc(Cl)c(-c2nc(NC3CC(C)N(C(=O)OC)C(C)C3)c(C)c(-c3c(C)noc3C)n2)c1` (centres unmarked) [Example 46-3] the IC50 was < 100 nM.
With `CNCC(O)COc1cc(Cl)cc(-c2nc(NC3CCOCC3)c(C)c(-c3c(C)noc3C)n2)c1` (centres unmarked) [Example 47-1a] the IC50 was < 100 nM.
With `CNCC(O)COc1cccc(-c2nc(-c3c(C)noc3C)c(C)c(N3CCNC(C(F)F)C3)n2)c1` (centres unmarked) [Example 47-3] the IC50 was < 100 nM.
`CNCC(O)COc1cccc(-c2nc(-c3ccc4c(c3)OCCO4)cc(N(C)CCC#N)n2)c1` (centres unmarked) [Example 48-1] was tested, and the IC50 was < 100 nM.
For `CCN1CCC[C@H]1CNc1nc(-c2cc(OC[C@@H](O)CNC)ccc2Cl)nc(-c2c(C)noc2C)c1C` [Example 48-3], the IC50 was < 100 nM.
For `CNCC(O)COc1cccc(-c2nc(-c3ccc(OC)c(OC)c3)cc(N(C)CCC#N)n2)c1` (centres unmarked) [Example 49-1], the IC50 was < 100 nM.
`CNCC(O)COc1cccc(-c2nc(Nc3cnc(C)nc3)cc(-c3c(C)noc3C)n2)c1` (centres unmarked) [Example 49-1a] was tested, and the IC50 was < 100 nM.
For `CCOC(=O)N1CCC[C@@H]1CNc1nc(-c2cc(OC[C@@H](O)CNC)ccc2Cl)nc(-c2c(C)noc2C)c1C` [Example 49-3], the IC50 was < 100 nM.
For `CNCC(O)COc1cccc(-c2nc(NCCCN3CCCC3=O)cc(-c3cncnc3)n2)c1` (centres unmarked) [Example 50-1], the IC50 was < 100 nM.
With `CNCC(O)COc1cccc(-c2nc(-c3c(C)noc3C)cc(N(C)c3cncnc3)n2)c1` (centres unmarked) [Example 50-1a] the IC50 was < 100 nM.
`CNCC(O)COc1cccc(-c2nc(-c3c(C)noc3C)cc(N(C)c3cnc(OC)nc3)n2)c1` (centres unmarked) [Example 51-1a] was tested, and the IC50 was < 100 nM.
For `CNCC(O)COc1cccc(-c2nc(NC3CCOCC3)cc(-c3cccc4ncccc34)n2)c1` (centres unmarked) [Example 53-1], the IC50 was < 100 nM.
With `CNCC(O)COc1cccc(-c2nc(SC)c(C)c(-c3c(C)noc3C)n2)c1` (centres unmarked) [Example 53-1a] the IC50 was < 100 nM.
In the case of `CNC[C@H](O)COc1ccc(Cl)c(-c2nc(N[C@H]3C[C@H](OC)C3)c(C)c(-c3c(C)noc3C)n2)c1` [Example 53-3], the IC50 is reported as < 100 nM.
In the case of `Cc1noc(C)c1-c1nc(-c2cccc(OCC(O)CN)c2)nc(NC2CCOCC2)c1C` (centres unmarked) [Example 54-1a], the IC50 is reported as < 100 nM.
In the case of `CNC[C@H](O)COc1ccc(Cl)c(-c2nc(N[C@H]3C[C@@H](OC)C3)c(C)c(-c3c(C)noc3C)n2)c1` [Example 54-3], the IC50 is reported as < 100 nM.
For `CNCC(O)COc1cccc(-c2nc(-c3cnc4[nH]ccc4c3)cc(N(C)C3CCOCC3)n2)c1` (centres unmarked) [Example 55-1], the IC50 was < 100 nM.
For `CNC[C@H](O)COc1cccc(-c2nc(NC3CCOCC3)c(C)c(-c3c(C)noc3C)n2)c1` [Example 55-1a], the IC50 was < 100 nM.
`CNC[C@H](O)COc1ccc(Cl)c(-c2nc(-c3c(C)noc3C)c(C)c(N3CC4(CCN(C5CC5)CC4)C3)n2)c1` [Example 55-3] was tested, and the IC50 was < 100 nM.
For `CNCC(O)COc1cccc(-c2nc(-c3ccc(S(C)(=O)=O)cc3)cc(N(C)CCC#N)n2)c1` (centres unmarked) [Example 56-1], the IC50 was < 100 nM.
`CNC[C@@H](O)COc1cccc(-c2nc(NC3CCOCC3)c(C)c(-c3c(C)noc3C)n2)c1` [Example 56-1a] was tested, and the IC50 was < 100 nM.
With `CCOC(=O)N1CCOC[C@@H]1CNc1nc(-c2cc(OC[C@H](O)CNC)ccc2Cl)nc(-c2c(C)noc2C)c1Cl` [Example 56-3] the IC50 was < 100 nM.
In the case of `CNCC(O)COc1cccc(-c2nc(-c3ccnc(OC)c3)cc(N(CCOC)CCOC)n2)c1` (centres unmarked) [Example 57-1], the IC50 is reported as < 100 nM.
With `CNCC(O)COc1cccc(-c2nc(-c3c(C)noc3C)c(C)c(N3CCS(=O)(=O)CC3)n2)c1` (centres unmarked) [Example 57-1a] the IC50 was < 100 nM.
In the case of `CNCC(O)COc1ccc(Cl)c(-c2nc(N[C@H]3CCC[C@@H](OC)C3)c(C)c(-c3c(C)noc3C)n2)c1` (some centres unmarked) [Example 57-3], the IC50 is reported as < 100 nM.
With `CNC[C@H](O)COc1ccc(Cl)c(-c2nc(NC[C@H]3COCCN3C(=O)OC)c(C)c(-c3c(C)noc3C)n2)c1` [Example 58-3] the IC50 was < 100 nM.
For `CNCC(O)COc1cccc(-c2nc(-c3ccc4c(c3)OCCO4)cc(N(C)C3CCOCC3)n2)c1` (centres unmarked) [Example 59-1], the IC50 was < 100 nM.
With `CNCC(O)COc1cccc(-c2nc(NC3CCS(=O)(=O)CC3)c(C)c(-c3c(C)noc3C)n2)c1` (centres unmarked) [Example 59-1a] the IC50 was < 100 nM.
`CCOC(=O)N1CCOC[C@H]1CNc1nc(-c2cc(OC[C@@H](O)CNC)ccc2F)nc(-c2c(C)noc2C)c1C` [Example 59-3] was tested, and the IC50 was < 100 nM.
`CNCC(O)COc1cccc(-c2nc(NCCCN3CCCC3=O)cc(-c3ccnc(OC)c3)n2)c1` (centres unmarked) [Example 60-1] was tested, and the IC50 was < 100 nM.
For `CNCC(O)COc1cccc(-c2nc(NC3CCS(=O)(=O)CC3)cc(-c3c(C)noc3C)n2)c1` (centres unmarked) [Example 60-1a], the IC50 was < 100 nM.
In the case of `CCOC(=O)N1CCOC[C@H]1CNc1nc(-c2cc(OC[C@H](O)CNC)ccc2F)nc(-c2c(C)noc2C)c1C` [Example 60-3], the IC50 is reported as < 100 nM.
`CNCC(O)COc1cccc(-c2nc(-c3c(C)noc3C)cc(N(C)c3cnc(C)nc3)n2)c1` (centres unmarked) [Example 61-1a] was tested, and the IC50 was < 100 nM.
In the case of `CCOC(=O)N1CCOC[C@@H]1CNc1nc(-c2cc(OC[C@@H](O)CNC)ccc2F)nc(-c2c(C)noc2C)c1C` [Example 61-3], the IC50 is reported as < 100 nM.
With `CNCC(O)COc1cccc(-c2nc(-c3ccc4c(c3)OCCO4)cc(N(CCOC)CCOC)n2)c1` (centres unmarked) [Example 62-1] the IC50 was < 100 nM.
`CCOC(=O)N1CCOC[C@@H]1CNc1nc(-c2cc(OC[C@H](O)CNC)ccc2F)nc(-c2c(C)noc2C)c1C` [Example 62-3] was tested, and the IC50 was < 100 nM.
For `CNC[C@H](O)COc1ccc(F)c(-c2nc(N[C@H]3CCN(C(=O)OC)C[C@H]3F)c(C)c(-c3c(C)noc3C)n2)c1` [Example 63-3], the IC50 was < 100 nM.
`CNCC(O)COc1cccc(-c2nc(-c3ccc(OC)c(OC)c3)cc(N(CCOC)CCOC)n2)c1` (centres unmarked) [Example 64-1] was tested, and the IC50 was < 100 nM.
`CNC[C@@H](O)COc1ccc(F)c(-c2nc(N[C@H]3CCN(C(=O)OC)C[C@H]3F)c(C)c(-c3c(C)noc3C)n2)c1` [Example 64-3] was tested, and the IC50 was < 100 nM.
`CNC[C@H](O)COc1ccc(Cl)c(-c2nc(N[C@H]3CCN(C(=O)OC)C[C@H]3F)c(C)c(-c3c(C)noc3C)n2)c1` [Example 65-3] was tested, and the IC50 was < 100 nM.
For `CNCC(O)COc1cccc(-c2nc(N[C@@H]3CCOC3)c(C)c(-c3c(C)noc3C)n2)c1` (some centres unmarked) [Example 66-1a], the IC50 was < 100 nM.
